Laboratory results from patent publication US4383113A, “Agricultural sulfonamides” (E. I. Du Pont de Nemours and Company, priority 1981, dated 1983).

Legend:
Parameters in all cases: key: 0 = no effect, 10 = maximum effect; letter = response symbol
soybean [1] = assay: Test A post-emergence; assay type: in vivo
Outline: (§1)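 Seeds and tubers were treated preemergence in a growth medium with compound in a nonphytotoxic solvent, against untreated controls; emerged plants such as two-leaf barnyardgrass and five-leaf cotton were sprayed postemergence, against solvent-sprayed controls. After sixteen days in a greenhouse, response was rated visually from 0 to 10.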

wheat [2] = assay: Test A post-emergence; assay type: in vivo
Outline: as §1

corn [3] = assay: Test A post-emergence; assay type: in vivo
Outline: as §1

sorghum [4] = assay: Test A post-emergence; assay type: in vivo
Outline: as §1

cotton = assay: Test A post-emergence; assay type: in vivo
Outline: as §1

rice [5] = assay: Test A post-emergence; assay type: in vivo
Outline: as §1

cocklebur [6] = assay: Test A post-emergence; assay type: in vivo, Xanthium spp.
Outline: as §1

wild oats [7] = assay: Test A post-emergence; assay type: in vivo, Avena fatua
Outline: as §1

nutsedge = assay: Test A post-emergence; assay type: in vivo, Cyperus rotundus
Outline: as §1

cassia = assay: Test A post-emergence; assay type: in vivo, Cassia tora
Outline: as §1

barnyardgrass = assay: Test A post-emergence; assay type: in vivo, Echinochloa crusgalli
Outline: as §1

bush bean = assay: Test A post-emergence; assay type: in vivo, bush beans
crabgrass [8] = assay: Test A post-emergence; assay type: in vivo, Digitaria spp.
Outline: as §1

morningglory [9] = assay: Test A post-emergence; assay type: in vivo, Ipomoea spp.
Outline: as §1

wild oats [10] = assay: Test A pre-emergence; assay type: in vivo, Avena fatua; conditions: 0.4 kg/ha
Outline: as §1

soybean [11] = assay: Test A pre-emergence; assay type: in vivo; conditions: 0.4 kg/ha
Outline: as §1

wheat [12] = assay: Test A pre-emergence; assay type: in vivo; conditions: 0.4 kg/ha
Outline: as §1

corn [13] = assay: Test A pre-emergence; assay type: in vivo; conditions: 0.4 kg/ha
Outline: as §1

sorghum [14] = assay: Test A pre-emergence; assay type: in vivo; conditions: 0.4 kg/ha
Outline: as §1

rice [15] = assay: Test A pre-emergence; assay type: in vivo; conditions: 0.4 kg/ha
Outline: as §1

cocklebur [16] = assay: Test A pre-emergence; assay type: in vivo, Xanthium spp.; conditions: 0.4 kg/ha
Outline: as §1

morningglory [17] = assay: Test A pre-emergence; assay type: in vivo, Ipomoea spp.; conditions: 0.4 kg/ha
Outline: as §1

crabgrass [18] = assay: Test A pre-emergence; assay type: in vivo, Digitaria spp.; conditions: 0.4 kg/ha
Description: The activity of these compounds was discovered in a number of greenhouse and field tests. The ratings are based on a numerical scale extending from 0=no effect, to 10=maximum effect. The accompanying descriptive symbols have the following meanings:
Seeds of crabgrass (Digitaria spp.), barnyardgrass (Echinochloa crusgalli), wild oats (Avena fatua), cassia (Cassia tora), morningglory (Ipomoea spp.), cocklebur (Xanthium spp.), sorghum, corn, soybean, rice, wheat and nutsedge tubers (Cyperus rotundus) were planted in a growth medium and treated preemergence with a nonphytotoxic solvent solution of the compounds of Table XII. Other batches of seeds and tubers for all of the foregoing weed and crop plants were planted at the same time as controls. The control plantings were untreated; i.e., neither any compound nor any solvent was applied. At the same time, cotton having five leaves (including cotyledonary ones), bush beans with the third trifoliate leaf expanding, crabgrass with two leaves, barnyardgrass with two leaves, wild oats with two leaves, cassia with three leaves (including cotyledonary ones), morningglory with four leaves (including the cotyledonary ones), cocklebur with four leaves (including the cotyledonary ones), sorghum with four leaves, corn with four leaves, soybean with two cotyledonary leaves, rice with three leaves, wheat with one leaf, and nutsedge with three-five leaves were sprayed with a nonphytotoxic solvent solution of the compounds of Table XII. Other groups of all the same weed and crop plants were sprayed with the same nonphytotoxic solvent so as to provide control plants. Preemergence and postemergence treated plants and controls were maintained in a greenhouse for sixteen days, then all treated plants were compared with their respective controls and rated visually for response to treatment.

## COC(=O)c1ccccc1S(=O)(=O)NC(=O)Nc1nc(C)cc(C)n1 [drawing 412]
Soybean [1]; 0.4 kg/ha
  response rating: 9C
Soybean [1]; 2 kg/ha
  response rating: 6C
Wheat [2]; 0.4 kg/ha
  response rating: 9C
Wheat [2]; 2 kg/ha
  response rating: 9C
Corn [3]; 0.4 kg/ha
  response rating: 9C
Corn [3]; 2 kg/ha
  response rating: 9C
Sorghum [4]; 0.4 kg/ha
  response rating: 9C
Sorghum [4]; 2 kg/ha
  response rating: 10C
cotton; 0.4 kg/ha
  response rating: 9C
cotton; 2 kg/ha
  response rating: 9C
Rice [5]; 0.4 kg/ha
  response rating: 10C
Rice [5]; 2 kg/ha
  response rating: 10C
Cocklebur [6]; 0.4 kg/ha
  response rating: 10C
Cocklebur [6]; 2 kg/ha
  response rating: 9C
Wild oats [7]; 0.4 kg/ha
  response rating: 9C
Wild oats [7]; 2 kg/ha
  response rating: 9C
nutsedge; 0.4 kg/ha
  response rating: 9C
nutsedge; 2 kg/ha
  response rating: 9C
cassia; 0.4 kg/ha
  response rating: 9C
cassia; 2 kg/ha
  response rating: 9C
barnyardgrass; 0.4 kg/ha
  response rating: 10C
barnyardgrass; 2 kg/ha
  response rating: 10C
Bush bean; 0.4 kg/ha
  response rating: 9C
Bush bean; 2 kg/ha
  response rating: 9C
Crabgrass [8]; 0.4 kg/ha
  response rating: 9C
Crabgrass [8]; 2 kg/ha
  response rating: 9C
Morningglory [9]; 0.4 kg/ha
  response rating: 10C
Morningglory [9]; 2 kg/ha
  response rating: 10C

## COC(=O)c1ccccc1S(=O)(=O)NC(=O)Nc1nc(OC)cc(OC)n1 [drawing 414]
Soybean [1]; 0.4 kg/ha
  response rating: 9C
Wheat [2]; 0.4 kg/ha
  response rating: 9C
Corn [3]; 0.4 kg/ha
  response rating: 9C
Sorghum [4]; 0.4 kg/ha
  response rating: 9C
cotton; 0.4 kg/ha
  response rating: 9C
Rice [5]; 0.4 kg/ha
  response rating: 8C
Cocklebur [6]; 0.4 kg/ha
  response rating: 9C
Wild oats [7]; 0.4 kg/ha
  response rating: 9C
nutsedge; 0.4 kg/ha
  response rating: 10C
cassia; 0.4 kg/ha
  response rating: 9C
barnyardgrass; 0.4 kg/ha
  response rating: 9C
Bush bean; 0.4 kg/ha
  response rating: 9C
Morningglory [9]; 0.4 kg/ha
  response rating: 10C

## COC(=O)c1ccccc1S(=O)(=O)NC(=O)Nc1nc(C)nc(OC)n1 [drawing 415]
Soybean [1]; 0.4 kg/ha
  response rating: 9C
Wheat [2]; 0.4 kg/ha
  response rating: 10C
Corn [3]; 0.4 kg/ha
  response rating: 10C
Sorghum [4]; 0.4 kg/ha
  response rating: 10C
cotton; 0.4 kg/ha
  response rating: 9C
Rice [5]; 0.4 kg/ha
  response rating: 10C
Cocklebur [6]; 0.4 kg/ha
  response rating: 9C
Wild oats [7]; 0.4 kg/ha
  response rating: 10C
nutsedge; 0.4 kg/ha
  response rating: 9C
barnyardgrass; 0.4 kg/ha
  response rating: 10C
Bush bean; 0.4 kg/ha
  response rating: 9C
Crabgrass [8]; 0.4 kg/ha
  response rating: 10C
Morningglory [9]; 0.4 kg/ha
  response rating: 10C

## CCOC(=O)c1ccccc1S(=O)(=O)NC(=O)Nc1nc(OC)cc(OC)n1 [drawing 441]
Wheat [2]; 2 kg/ha
  response rating: 9C
Corn [3]; 2 kg/ha
  response rating: 9C
Sorghum [4]; 2 kg/ha
  response rating: 10C
cotton; 2 kg/ha
  response rating: 9C
Rice [5]; 2 kg/ha
  response rating: 9C
Cocklebur [6]; 2 kg/ha
  response rating: 9C
Wild oats [7]; 2 kg/ha
  response rating: 9C
nutsedge; 2 kg/ha
  response rating: 9C
cassia; 2 kg/ha
  response rating: 9C
barnyardgrass; 2 kg/ha
  response rating: 10C
Crabgrass [8]; 2 kg/ha
  response rating: 9C
Morningglory [9]; 2 kg/ha
  response rating: 10C

## COc1cc(C)nc(NC(=O)NS(=O)(=O)c2ccccc2C(=O)OCCOCCOCCCl)n1 [drawing 448]
Soybean [1]; 0.4 kg/ha
  response rating: 8C
Wheat [2]; 0.4 kg/ha
  response rating: 9C
cotton; 0.4 kg/ha
  response rating: 9C
Rice [5]; 0.4 kg/ha
  response rating: 8C
Cocklebur [6]; 0.4 kg/ha
  response rating: 9C
Wild oats [7]; 0.4 kg/ha
  response rating: 9C
cassia; 0.4 kg/ha
  response rating: 9C
barnyardgrass; 0.4 kg/ha
  response rating: 10C
Bush bean; 0.4 kg/ha
  response rating: 9C
Morningglory [9]; 0.4 kg/ha
  response rating: 10C

## COC(=O)c1ccccc1S(=O)(=O)NC(=O)Nc1nc(C)nc(N(C)C)n1 [drawing 472]
Soybean [1]; 0.4 kg/ha
  response rating: 9C
Wheat [2]; 0.4 kg/ha
  response rating: 9C
Corn [3]; 0.4 kg/ha
  response rating: 9C
Sorghum [4]; 0.4 kg/ha
  response rating: 10C
cotton; 0.4 kg/ha
  response rating: 9C
Rice [5]; 0.4 kg/ha
  response rating: 10C
Cocklebur [6]; 0.4 kg/ha
  response rating: 9C
Wild oats [7]; 0.4 kg/ha
  response rating: 9C
nutsedge; 0.4 kg/ha
  response rating: 8G
cassia; 0.4 kg/ha
  response rating: 9C
barnyardgrass; 0.4 kg/ha
  response rating: 10C
Bush bean; 0.4 kg/ha
  response rating: 9C
Morningglory [9]; 0.4 kg/ha
  response rating: 10C

## COc1nc(NC(=O)NS(=O)(=O)c2ccccc2C(=O)OCCCl)nc(OC)n1 [drawing 489]
Wild oats [10]
  response rating: 8G
Soybean [11]
  response rating: 9H
Wheat [12]
  response rating: 5G
Corn [13]
  response rating: 9G
Sorghum [14]
  response rating: 9G
Rice [15]
  response rating: 9H
Cocklebur [16]
  response rating: 9G
Morningglory [17]
  response rating: 9C
Crabgrass [18]
  response rating: 4G
